Assay results reported in US20070265208A1, “Association of calpain inhibitors and reactive oxygen species trapping agents” (priority 2000, published 2007).
Read-outs that look alike come from different tables or passages of the source.

Assays:
[1] = tested on: 8-isoPG1F2α level in rat glial cells C6; assay: In situ isoprostane level (8-isoPG1F2α) in C6 cells treated with maitotoxin; type: cell-based; conditions: 3 h, read-out: Inhibition of the isoprostane count in situ (C6) [IC50 (μM)]
Method: 8-isoPG1F2α is part of a family of compounds the first synthesis stage of which (peroxidation of arachidonic acid) is carried out in a non-enzymatic manner in the presence of free radicals (Morrow and coll, 1990). Measurement of the 8-iso PGF2α level is considered as a reliable marker of the oxidation stress.
The rat glial cells C6 were seeded at 25 000 cells per well in 96-well plates in DMEM 10% FBS. The next day, 100 μl of product A was placed in the wells. After incubation for 1 hour at 37° C. under an atmosphere of 5% CO2, 10 μl containing maitotoxin is added in order to obtain a final concentration in the well of 1 nM. After incubation for 3 hours, the supernatants are removed and frozen at −20° C. The 8-isoPG1F2α level is measured using a specific EIA dosage kit (Cayman chemical, ref: 516351).

[2] = tested on: human neuroblastomas SHSY5Y; assay: Protection from necrosis induced by maitotoxin, SHSY5Y (wst-1 viability); type: cell-based; conditions: for Protection from necrosis induced by MTX: SHSY5Y, n=2, 0.1 nM maitotoxin; for Protection from necrosis induced by MTX on SHSY5Y: n = 8, single product at 100 μM
Method: (§1) Human neuroblastomas SHSY5Y and rat glial cells C6 are seeded at 25 000 cells per well in 96-well plates in DMEM 10% FBS for 24 hours. The L6 rat myoblasts are seeded at 1000 cells per well in DMEM 10% FBS on 96-well microplates coated beforehand with gelatin 0.5% PBS. After culture for 3 days the medium is removed and replaced with a differentiation medium (DMEM+10 μg/ml of insulin+100 μg/ml of transferrin). 50 μl of product A plus 50 μl of solvent or 50 μl of product B are placed in the wells. After incubation for 1 hour at 37° C. under an atmosphere of 5% CO2, 10 μl of maitotoxin is added in order to obtain a final concentration of 0.1 nM to 1 nM (according to the cell type). After incubation for 3 hours at 37° C. under an atmosphere of 5% CO2, the cell viability is determined by adding 10 μl of tetrazolium salts (wst-1, Roche, ref: 1644807). The tetrazolium salts are cleaved into formazan molecules by mitochondrial dehydrogenases. The quantity of formazan formed is directly correlated to the number of metabolically active cells in the culture. Measurement of the absorbance of the formazan is carried out using a multiwell photometer at a wavelength of 420 nm against a reference wavelength of 620 nm.
(§2) The theoretical effect was obtained by multiplying the percentage of dead cells in the presence of product A by the percentage of dead cells in the presence of product B (Table 3). The percentage protection against cell death induced by MTX being the percentage of cells kept alive in the presence of the product or products.
In a first series of experiments, the concentration of product A in Example 1 is fixed (100 μM), product B is added at concentrations varying from zero to 100 μM (Table 4A). In a second series of experiments, product B of Example 1 is fixed at 100 μM, product A is added at concentrations varying from zero to 100 μM (Table 4B).

[3] = tested on: lipidic peroxidation of rat cerebral cortex homogenate; assay: In vitro lipidic peroxidation (Fenton reaction, MDA) in rat cerebral cortex membranes; type: biochemical; conditions: iron/ascorbate, read-out: Inhibition of lipidic peroxidation [IC50 (μM)]
Method: The test consists of inducing lipidic peroxidation by Fenton reactions in the presence of iron and ascorbate. The degree of lipidic peroxidation is determined by the concentration of malonaldehyde (MDA). The MDA produced by the lipidic peroxidation of unsaturated fatty acids is a good indicator of lipidic peroxidation (Esterbauer et al, 1990; Meth. Enzymol. 186: 407421). For this colorimetric test, the condensation of a molecule of MDA with two molecules of chromogenic reagent R (N-methyl-2-phenylindole) produces a stable chromophore the maximum absorbance wavelength of which is equal to […].
The membranes are prepared from the cortexes of male Sprague Dawley rats weighing 200 to 250 g. The animals are sacrificed by decapitation and the brains are immediately removed and rinsed in cold Tris HCl 20 mM pH 7.4. The cortexes, after dissection and removal of the white matter, are then ground with the Thomas potter, in Tris HCl buffer 20 mM pH 7.4 at 4° C. The homogenate obtained is centrifuged at low speed in order to eliminate the large debris (515 g for 15 minutes at 4° C.). The supernatant is then distributed into polycarbonate centrifugation tubes and centrifuged at 51500 g for 25 min at 4° C. The membrane pellets are kept at −80° C.
On the day of the experiment, the frozen membranes are resuspended at a concentration of 0.5 equivalent grams of cortex per 5 ml of Tris HCl buffer 20 mM pH 7.4 and homogeneized using a combitips. In 96-well “deep-well” 1 ml polypropylene plates with a conical base, 5 μl per well of the product to be tested or of solvent is mixed with 40 μl of rat cerebral cortex homogenate by centrifugation (800 rpm). The plates are covered with a self-adhesive aluminium sheet and incubated at 37° C. for 15 minutes under agitation. […]
The membranes and the supernatants are separated by filtration under vacuum on a 96-well plate with a multiscreen filtering base NA (Millipore, ref: MANANLY 50). The absorbance of the supernatants recovered in the 96-well plates is read using a photometer.

[4] = tested on: rat glial cells C6; assay: Protection from necrosis induced by maitotoxin, C6 (wst-1 viability); type: cell-based
Method: as §1, §2
In the light of the previous results, the combination of Example 1 with product A and product B at a rate of 100 μM of each of the products is carried out on human neuroblastomas (SHSY5Y; (Table 5A) and on glial cells with 25 μM of product A and 50 μM of product B (C6; Table 5B) on a larger number of cases.

[5] = tested on: L6 Myoblasts differentiated to myotubes (rat skeletal muscle cells); assay: Protection from necrosis induced by maitotoxin, L6 myoblasts differentiated to myotubes; type: cell-based; conditions: single product at 100 μM
Method: as §1
The theoretical effect was obtained by multiplying the percentage of dead cells in the presence of product A by the percentage of dead cells in the presence of product B (Table 3). […]

[6] = molecular target: T1, human calpain I (Homo sapiens, UniProt P07384); assay: Effects on human calpain I (acellular, Suc-Leu-Tyr-AMC fluorescence); type: biochemical; conditions: enzyme purified from human erythrocytes; 1 h at 25°C; read-out: Inhibition human calpain I, acellular [IC50 (nM)]
T1 construct: enzyme purified from human erythrocytes; purchased Calbiochem 208713; host or cells: human erythrocytes (native tissue source)
T1 sequence (P07384 1-714): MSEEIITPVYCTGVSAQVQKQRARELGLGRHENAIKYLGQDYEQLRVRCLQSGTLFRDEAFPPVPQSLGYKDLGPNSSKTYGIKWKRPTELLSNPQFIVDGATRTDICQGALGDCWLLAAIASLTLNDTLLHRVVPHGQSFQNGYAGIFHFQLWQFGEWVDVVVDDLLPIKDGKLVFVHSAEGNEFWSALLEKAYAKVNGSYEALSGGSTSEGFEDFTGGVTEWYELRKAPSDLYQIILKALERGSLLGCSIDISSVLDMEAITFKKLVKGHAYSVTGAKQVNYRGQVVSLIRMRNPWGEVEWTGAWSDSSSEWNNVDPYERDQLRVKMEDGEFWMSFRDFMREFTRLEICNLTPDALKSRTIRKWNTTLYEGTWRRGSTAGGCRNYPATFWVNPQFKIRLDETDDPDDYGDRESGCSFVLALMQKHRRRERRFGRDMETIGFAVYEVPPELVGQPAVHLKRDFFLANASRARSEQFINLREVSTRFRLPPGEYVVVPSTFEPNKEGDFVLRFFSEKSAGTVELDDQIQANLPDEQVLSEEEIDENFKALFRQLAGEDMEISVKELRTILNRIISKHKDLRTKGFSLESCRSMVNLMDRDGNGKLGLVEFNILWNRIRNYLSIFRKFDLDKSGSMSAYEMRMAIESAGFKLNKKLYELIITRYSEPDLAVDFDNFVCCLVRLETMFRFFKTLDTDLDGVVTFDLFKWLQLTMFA
T1 sequence (P04632 1-268 partner): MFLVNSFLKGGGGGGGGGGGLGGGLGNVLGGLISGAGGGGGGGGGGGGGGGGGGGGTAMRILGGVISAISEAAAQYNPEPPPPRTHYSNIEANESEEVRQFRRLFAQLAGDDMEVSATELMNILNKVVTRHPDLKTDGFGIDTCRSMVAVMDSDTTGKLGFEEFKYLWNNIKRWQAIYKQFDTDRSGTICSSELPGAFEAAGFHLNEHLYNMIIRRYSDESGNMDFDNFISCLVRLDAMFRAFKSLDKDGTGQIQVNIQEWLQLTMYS
Method: The test consists of measuring the activity of the enzyme (enzyme purified from human erythrocytes) which is incubated in a buffer in the presence of a peptide substrate coupled with a fluorochrome (amino-methylcourmarin, AMC) and calcium. The enzyme activated by the calcium, proteolyses the substrate and releases the AMC fragment. The AMC released fluoresces at 460 nm under excitation at 380 nm. The activity of the enzyme is therefore proportional to the quantity of fluorescence i.e. of free AMC fragment. The fluorescence (380/460 nm) is measured using a multi-well fluorimeter (Victor 2, Wallac).
Assay is carried out in 96-well microplates with transparent bottoms and black walls in which 10 μl per well of substance to be tested in DMSO 10%, 45 μl of reaction mixture containing the human calpain I at 2.2 U/ml (Calbiochem, ref: 208713), the Suc Leu Tyr-AMC substrate (Bachem, ref: I-1355) at 1.1 mM in a buffer (Tris-HCl 110 mM; NaCl 110 mM; EDTA 2.2 mM; EGTA 2.2 mM; mercaptoethanol 1.1 mM) are distributed. The reaction is initiated by adding 45 μl of CaCl2 22mM. To determine the background noise, control wells without calcium are added to the plate (10 μL DMSO 10%+45 μL of buffer with the enzyme and the susbtrate +45 μL H2O). In order to determine the total activity of the enzyme control wells containing no product are added to the plate (10 μL DMSO 10%+45 μL of buffer with the enzyme and the substrate +45 μL of CaCl2 22 mM ). Each concentration of the products (0.1 nM to 10 μM) is tested in duplicate. The plates are shaken and incubation takes place for one hour at 25° C. in darkness. The fluorescence is read at 380/460 nm using the Victor.

[7] = single product at 50 μM, n = 3 for Example 2, else n = 1
[8] = single product at 100 μM, n = 1

| Compound | IC50 ([1]; n = 3, maitotoxin 1 nM) | Protection from necrosis induced by MTX ([2]; single compound at 12.5 μM) | Protection from necrosis induced by MTX ([2]; single compound at 25 μM) | Protection from necrosis induced by MTX ([2]; single compound at 50 μM) | Protection from necrosis induced by MTX ([2]; single compound at 100 μM) | Protection from necrosis induced by MTX on SHSY5Y [2] | Protection from necrosis induced by MTX on SHSY5Y ([2]; listed as 3,5-di-tert-butyl-4-hydroxybenzoic acid) | IC50 [3] | Protection from necrosis induced by MTX on C6 ([4]; single product at 25 μM) | Protection from necrosis induced by MTX on C6 ([4]; single product at 25 μM, listed as 3-5-di-tert-butyl-4-hydroxybenzoic acid) | Protection from necrosis induced by MTX on C6 ([4]; single product at 25 μM, listed as EXAMPLE 4 A) | Protection from necrosis induced by MTX on C6 [4, 7] | Protection from necrosis induced by MTX on C6 [4, 8] | IC50 ([1]; Rattus norvegicus, Glial cell) | Protection from necrosis induced by MTX on C6 ([4]; single product at 50 μM, n = 3 for Example 2, else n = 1, listed as 2-methoxy-10H-phenothiazine) | Protection from necrosis induced by MTX on L6 Myoblasts differentiated to myotubes [5] | IC50 [6] |
| --- | --- | --- | --- | --- | --- | --- | --- | --- | --- | --- | --- | --- | --- | --- | --- | --- | --- |
| CC(C)(C)c1cc(C(=O)O)cc(C(C)(C)C)c1O [EXAMPLE 1 A, 3-5-di-tert-butyl-4-hydroxybenzoic acid] | 101 µM | 5.18 ± 1.81% | 7.45 ± 1.65% | 8.87 ± 0.34% | 8.68 ± 0.3% | 19.48 ± 5.20% | less than 20% | 3.7 µM | 21.23% | ~20% | 16.17% | 12.51% | 30.84% | – | – | – | – |
| COc1ccc2c(c1)Nc1ccccc1S2 [EXAMPLE 2 A, 2-methoxy-10H-phenothiazine] | – | – | – | – | – | – | – | 0.19 µM | – | – | – | 6.56 ± 1.6% | 10.45% | 0.4 µM | inactive | 10.94% | – |
| CCCC[C@@H](C=O)NC(=O)[C@H](CC(C)C)NC(=O)OCc1ccccc1 [EXAMPLE 3 B] | – | – | – | – | – | – | – | – | – | – | – | 13.03% | 0.84% | – | – | 5.09% | 2.8 nM |
